In ChEMBL document CHEMBL1201862, “PubChem BioAssay data set” (2004):
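Five compound concentrations were applied to cells in 96-well plates for 48 hours; endpoints were derived by simple linear interpolation of the resulting dose-response curve. The concentration for 50% growth inhibition is given as GI50.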 Activity calls are given as the source filed them. Rule as the data show it: active = GI50 up to about 1.1 µM and inactive = higher.

What was measured:
Assay in all cases: NCI anticancer screen, dose series, 48 h
CAKI-1 = test system: CAKI-1
NCI-H460 = test system: NCI-H460
M14 = test system: M14
A498 = test system: A498
BT-549 = test system: BT-549
EKVX = test system: EKVX
SK-MEL-2 = test system: SK-MEL-2
RPMI-8226 = test system: RPMI-8226
MDA-MB-435 = test system: MDA-MB-435
KM12 = test system: KM12
UO-31 = test system: UO-31
MDA-MB-231 = test system: MDA-MB-231
HOP-62 = test system: HOP-62
HCT-116 = test system: HCT-116
TK-10 = test system: TK-10
ACHN = test system: ACHN
SW-620 = test system: SW-620
SF-539 = test system: SF-539
PC-3 = test system: PC-3
HL-60 = test system: HL-60

SMILES | GI50 (CAKI-1) | GI50 (NCI-H460) | GI50 (M14) | GI50 (A498) | GI50 (BT-549) | GI50 (EKVX) | GI50 (SK-MEL-2) | GI50 (RPMI-8226) | GI50 (MDA-MB-435) | GI50 (KM12) | GI50 (UO-31) | GI50 (MDA-MB-231) | GI50 (HOP-62) | GI50 (HCT-116) | GI50 (TK-10) | GI50 (ACHN) | GI50 (SW-620) | GI50 (SF-539) | GI50 (PC-3) | GI50 (HL-60)
N#Cc1c(-c2ccccc2)c(/C=N/c2ccc(F)cc2)c(=O)n2c1[nH]c1ccccc12 | 13.6 µM (inactive) | 17.8 µM (inactive) | 14.4 µM (inactive) | 29.4 µM (inactive) | 35.5 µM (inactive) | 19.8 µM (inactive) | 26.9 µM (inactive) | 3.06 µM (inactive) | 18.4 µM (inactive) | 29.6 µM (inactive) | 16.2 µM (inactive) | 51.6 µM (inactive) | 2.95 µM (inactive) | 14.7 µM (inactive) | 20.8 µM (inactive) | 18.5 µM (inactive) | 29.5 µM (inactive) | 30.2 µM (inactive) | 28.6 µM (inactive) | 
CC(C)(C)OC(=O)N/C(C=O)=C\C1CCCCC1 | 20.4 µM (inactive) | 20.2 µM (inactive) | 16.2 µM (inactive) |  | 25.2 µM (inactive) | 17.2 µM (inactive) | 24.8 µM (inactive) |  | 20 µM (inactive) | 24.4 µM (inactive) | 16.5 µM (inactive) | 19.5 µM (inactive) | 21 µM (inactive) | 16.3 µM (inactive) | 17.7 µM (inactive) | 29.3 µM (inactive) | 27.3 µM (inactive) | 28.4 µM (inactive) | 17.3 µM (inactive) | 25.4 µM (inactive)
O/N=C1/Nc2cc(Cl)ccc2C(=S)N2CSCC12 (stereo not drawn) | > 100 µM (inactive) | > 100 µM (inactive) | > 100 µM (inactive) | > 100 µM (inactive) | > 100 µM (inactive) | > 100 µM (inactive) | > 100 µM (inactive) | > 100 µM (inactive) | > 100 µM (inactive) | > 100 µM (inactive) | > 100 µM (inactive) | > 100 µM (inactive) | > 100 µM (inactive) | > 100 µM (inactive) | > 100 µM (inactive) | > 100 µM (inactive) | > 100 µM (inactive) |  | > 100 µM (inactive) | 
CO/N=C(\C(=O)Nc1cncs1)c1csc(N)n1 | > 10 µM (inactive) | > 10 µM (inactive) | > 10 µM (inactive) | > 10 µM (inactive) | > 10 µM (inactive) | > 10 µM (inactive) |  | 6.27 µM (inactive) | > 10 µM (inactive) | > 10 µM (inactive) | > 10 µM (inactive) | > 10 µM (inactive) | > 10 µM (inactive) | > 10 µM (inactive) | > 10 µM (inactive) | > 10 µM (inactive) | > 10 µM (inactive) | > 10 µM (inactive) | > 10 µM (inactive) | 
CC(C)[Si](OC1=CCC[C@H]2NC(=O)[C@@H](Cc3ccccc3)[C@@]12C)(C(C)C)C(C)C | 3.85 µM (inactive) | 3.52 µM (inactive) | 11.2 µM (inactive) | 5.79 µM (inactive) | 10.8 µM (inactive) | 3.74 µM (inactive) | 14.2 µM (inactive) |  | 4.04 µM (inactive) | 3.84 µM (inactive) | 10.1 µM (inactive) | 12.6 µM (inactive) | 11.9 µM (inactive) | 3.6 µM (inactive) | 9.98 µM (inactive) | 1.89 µM (inactive) | 2.72 µM (inactive) | 5.74 µM (inactive) | 3.37 µM (inactive) | 2.86 µM (inactive)
CN1C(=O)C2CCCC(=O)N2c2cccnc21 (stereo not drawn) | > 100 µM (inactive) | > 100 µM (inactive) |  |  | > 100 µM (inactive) | > 100 µM (inactive) | 32.4 µM (inactive) | > 100 µM (inactive) | > 100 µM (inactive) | > 100 µM (inactive) | 74.1 µM (inactive) | > 100 µM (inactive) | > 100 µM (inactive) | > 100 µM (inactive) | > 100 µM (inactive) | > 100 µM (inactive) | > 100 µM (inactive) | > 100 µM (inactive) |  | > 100 µM (inactive)
O=C1OCC2=Nc3cccc4cccc(c34)N12 | > 100 µM (inactive) | > 100 µM (inactive) | > 100 µM (inactive) |  | > 100 µM (inactive) | 57.1 µM (inactive) |  |  | > 100 µM (inactive) | > 100 µM (inactive) | > 100 µM (inactive) | > 100 µM (inactive) | > 100 µM (inactive) | > 100 µM (inactive) | > 100 µM (inactive) | > 100 µM (inactive) | > 100 µM (inactive) | > 100 µM (inactive) | > 100 µM (inactive) | > 100 µM (inactive)
COc1cc2c(cc1OC)-c1[nH]c3ccc(C#N)cc3c1CC(=O)N2 | 1.56 µM (inactive) | 5.31 µM (inactive) | 8.09 µM (inactive) | 7.74 µM (inactive) | 10.5 µM (inactive) | 22.2 µM (inactive) |  |  | 8.79 µM (inactive) | 1.71 µM (inactive) | 2.11 µM (inactive) | > 100 µM (inactive) | 3.86 µM (inactive) |  | > 27 µM (inactive) | 2.32 µM (inactive) | 1.03 µM (active) | 0.521 µM (active) | 57.5 µM (inactive) | 3.07 µM (inactive)
